Measurements taken from patent publication EP1254122B1, “NOVEL 3-SUBSTITUTED 1,2,4-BENZOTRIAZINES, A METHOD FOR THEIR PRODUCTION AND THE USE THEREOF” (UFZ-UMWELTFORSCHUNGSZENTRUM Leipzig-Halle GmbH, priority 1999, dated 2001).
Values after ≈ are worked out from the molar mass of the structure shown.

Legend:
Type in all cases: cell-based
[1] = tested on: Hep2; assay: Inhibition of cell growth, Hep2 cells; settings: 37°C, three days, evaluated by microscope against untreated reference cells; for IC50: Homo sapiens, HEp-2, 72 h, read-out: IC50-Wert (50%ige Hemmung des Zellwachstums in µg/ml)
Procedure: (§1) Zu je 1 ml einer entsprechenden Zellstammlösung werden die zu testenden Substanzen in wäßriger steriler Lösung in Konzentrationsschritten von je 2-50 µg gespritzt. Die Testkammern werden anschließend zusammen mit einer unbehandelten Referenzkammer bei 37°C drei Tage entwickelt.
(§2) Die Auswertung erfolgt mittels Mikroskop. Es werden Zellvermehrung bzw. Zellzerstörung (Zustand der Zellmembran sowie des Zellkern) mit unbehandelten Referenzzellen verglichen. Tabelle: IC50-Wert (50%ige Hemmung des Zellwachstums in µg/ml) ausgewählter Substanzen der Formel I

[2] = tested on: HeLa; assay: Inhibition of cell growth, HeLa cells; settings: 37°C, three days, evaluated by microscope against untreated reference cells; for IC50: Homo sapiens, 72 h, read-out: IC50-Wert (50%ige Hemmung des Zellwachstums in µg/ml)
Procedure: as §1, §2

[3] = tested on: Peritoneal carcinom; assay: Inhibition of cell growth, peritoneal carcinoma cells; settings: 37°C, three days, evaluated by microscope against untreated reference cells; for IC50: 72 h, read-out: IC50-Wert (50%ige Hemmung des Zellwachstums in µg/ml)
Procedure: as §1, §2

[4] = tested on: Pleurocarcinom; assay: Inhibition of cell growth, pleural carcinoma cells; settings: 72 h, 37°C, three days, evaluated by microscope against untreated reference cells, read-out: IC50-Wert (50%ige Hemmung des Zellwachstums in µg/ml)
Procedure: as §1, §2

[5] = tested on: permanenten Zellkulturen; assay: Inhibition of cell growth, permanent cell cultures (overall statement); settings: result in words; HeLa-, Hep2-, Peritonealcarcinom- and Pleurocarcinomzellen
Procedure: as §1, §2
Die erfindungsgemäßen Verbindungen hemmen sämtlich das Zellwachstum von permanenten Zellkulturen wie z.B. von HeLa-, Hep2-Zellen, von Peritonealcarcinom- sowie von Pleurocarcinomzellen.

Question: What does the source list for `OC[C@@H](O)[C@@H](O)[C@H](O)c1nnc2ccccc2n1` [Verbindung h, 3-(D-arabino-Tetritol-1-yl)-1,2,4-benzotriazin]?
Answer: IC50 [1]: 150 µg/mL (≈ 597 µM); IC50 [2]: 150 µg/mL (≈ 597 µM)

Question: `CCOC(=O)Cc1nnc2ccccc2n1` [Verbindung f, 3-(Ethoxy-carbonylmethyl)-1,2,4-benzotriazin] was tested. Which IC50 [1] did it give?
Answer: 190 to 200 µg/mL (≈ 875 to 921 µM)

Question: And the IC50 [2]?
Answer: 378 µg/mL (≈ 1740 µM)

Question: What about the IC50 [3] of the same compound?
Answer: 180 µg/mL (≈ 829 µM)

Question: And the IC50 [4]?
Answer: 500 µg/mL (≈ 2300 µM)

Question: With `COC(=O)Cc1nnc2ccc(Cl)cc2n1` [Verbindung b, 3-(Methoxy-carbonylmethyl)-6-chlor-benzo-1,2,4-triazin] as the compound, how does the “IC50-Wert (50%ige Hemmung des Zellwachstums in µg/ml)” value [1] read?
Answer: 120 µg/mL (≈ 505 µM)

Question: And the “IC50-Wert (50%ige Hemmung des Zellwachstums in µg/ml)” value [2]?
Answer: 160 µg/mL (≈ 673 µM)

Question: And the “IC50-Wert (50%ige Hemmung des Zellwachstums in µg/ml)” value [3]?
Answer: 150 µg/mL (≈ 631 µM)

Question: Which “IC50-Wert (50%ige Hemmung des Zellwachstums in µg/ml)” value [1] does the source give for `COC(=O)Cc1nnc2cccc(Cl)c2n1` [Verbindung c, 3-(Methoxy-carbonylmethyl)-5-chlor-benzo-1,2,4-triazin] here?
Answer: 16 µg/mL (≈ 67.3 µM)

Question: What about the “IC50-Wert (50%ige Hemmung des Zellwachstums in µg/ml)” value [2] of the same compound?
Answer: 8 to 16 µg/mL

Question: And the “IC50-Wert (50%ige Hemmung des Zellwachstums in µg/ml)” value [3]?
Answer: 12 µg/mL (≈ 50.5 µM)

Question: And the “Hemmung des Zellwachstums (Wirksamkeit)” value [5]?
Answer: bevorzugte Wirksamkeit

Question: With `CCOC(=O)Cc1nnc2ccc(Br)cc2n1` [Verbindung g, 3-(Ethoxy-carbonylmethyl)-6-brom-benzo-1,2,4-triazin] as the compound, how does the “IC50-Wert (50%ige Hemmung des Zellwachstums in µg/ml)” value [1] read?
Answer: 8 to 16 µg/mL

Question: What about the “IC50-Wert (50%ige Hemmung des Zellwachstums in µg/ml)” value [2] of the same compound?
Answer: 8 to 16 µg/mL

Question: And the “IC50-Wert (50%ige Hemmung des Zellwachstums in µg/ml)” value [3]?
Answer: 35 µg/mL (≈ 118 µM)

Question: And the “Hemmung des Zellwachstums (Wirksamkeit)” value [5]?
Answer: bevorzugte Wirksamkeit

Question: With `COC(=O)Cc1nnc2ccccc2n1` [Verbindung e, 3-(Methoxy-carbonylmethyl)-1,2,4-benzotriazin] as the compound, how does the IC50 [1] read?
Answer: 100 µg/mL (≈ 492 µM)

Question: And the IC50 [2]?
Answer: 180 µg/mL (≈ 886 µM)

Question: And the IC50 [3]?
Answer: 350 µg/mL (≈ 1720 µM)

Question: And the IC50 [4]?
Answer: 500 µg/mL (≈ 2460 µM)

Question: With `CC(C)NC(=O)Cc1nnc2ccccc2n1` [Verbindung l, 3-(Isopropylamino-carbonylmethyl)-1,2,4-benzotriazin] as the compound, how does the IC50 [1] read?
Answer: 100 µg/mL (≈ 434 µM)

Question: What about the IC50 [2] of the same compound?
Answer: 86 µg/mL (≈ 373 µM)

Question: And the IC50 [3]?
Answer: 170 µg/mL (≈ 738 µM)

Question: What about the “Hemmung des Zellwachstums (Wirksamkeit)” value [5] of the same compound?
Answer: bevorzugte Wirksamkeit

Question: For `COC(=O)Cc1nnc2ccc(Cl)c(N)c2n1` [Verbindung d, 3-(Methoxy-carbonylmethyl)-5-amino-6-chlor-benzo-1,2,4-triazin], which “IC50-Wert (50%ige Hemmung des Zellwachstums in µg/ml)” value [2] is on record?
Answer: 50 µg/mL (≈ 198 µM)

Question: And the “IC50-Wert (50%ige Hemmung des Zellwachstums in µg/ml)” value [3]?
Answer: 25 to 30 µg/mL

Question: How did the “IC50-Wert (50%ige Hemmung des Zellwachstums in µg/ml)” value [2] turn out when `OC[C@@H](O)[C@@H](O)[C@H](O)c1nnc2ccc(Cl)cc2n1` [Verbindung k, 3-(D-arabino-Tetritol-1-yl)-6-chlor-benzo-1,2,4-triazin] was run?
Answer: 250 µg/mL (≈ 875 µM)

Question: For “3-(D-galacto-Tetritol-1-yl)-1,2,4-benzotriazin [Verbindung i]”, which “IC50-Wert (50%ige Hemmung des Zellwachstums in µg/ml)” value [2] is on record?
Answer: 400 µg/mL
